Converted amounts (≈) assume the structure as drawn.
How the values were obtained:
Assay in all cases: Minimum Inhibitory Concentration Assay (broth microdilution, CLSI)
Format in all cases: cell-based
[1] = test system: E. coli 7623; settings: Escherichia coli; strain 7623, broth microdilution; read-out: E. coli 7623 MIC
Outline: (§1)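 CLSI broth microdilution for aerobic bacteria; compounds serially diluted in the recommended broth over a final range of 0.125–128 mcg/mL, final DMSO below 1%. MIC read as the lowest concentration inhibiting visible growth.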

[2] = test system: K. pneumoniae 1161486; settings: Klebsiella pneumoniae; strain 1161486, broth microdilution; read-out: K. pneumoniae 1161486 MIC
Outline: as §1

[3] = test system: P. aeruginosa PA01; settings: Pseudomonas aeruginosa; strain PA01, broth microdilution; read-out: P. aeruginosa PA01 MIC
Outline: as §1

Row | Structure (SMILES) | MIC [1] | MIC [2] | MIC [3]
1 | COCCNCc1ccc(-c2ccc3c(=O)n(CC[C@](C)(C(=O)NO)S(C)(=O)=O)cc(F)c3c2)c(F)c1 [Example 88, (2R)-4-[4-fluoro-6-(2-fluoro-4-{[(2-methoxyethyl)amino]methyl}phenyl)-1-oxo-1,2-dihydroisoquinolin-2-yl]-N-hydroxy-2-methanesulfonyl-2-methylbutanamide] | 0.125 µg/mL (≈ 0.233 µM) | 0.25 µg/mL (≈ 0.465 µM) | 2 µg/mL (≈ 3.72 µM)
2 | CON(C)Cc1ccc(-c2ccc3c(=O)n(CC[C@](C)(C(=O)NO)S(C)(=O)=O)cnc3c2)cc1 [Example 52, (2R)—N-hydroxy-2-methanesulfonyl-4-[7-(4-{[methoxy(methyl)amino]methyl}phenyl)-4-oxo-3,4-dihydroquinazolin-3-yl]-2-methylbutanamide] | 0.063 µg/mL (≈ 0.129 µM) | 0.25 µg/mL (≈ 0.512 µM) | 8 µg/mL (≈ 16.4 µM)
3 | Cc1c(-c2ccc(CN3CCOCC3)cc2)ccc2c(=O)n(CC[C@](C)(C(=O)NO)S(C)(=O)=O)cnc12 [Example 29, (2R)—N-hydroxy-2-methanesulfonyl-2-methyl-4-(8-methyl-7-{4-[(morpholin-4-yl)methyl]phenyl}-4-oxo-3,4-dihydroquinazolin-3-yl)butanamide] | 0.5 µg/mL (≈ 0.946 µM) | 0.5 µg/mL (≈ 0.946 µM) | 4 µg/mL (≈ 7.57 µM)
4 | CN(C)c1ccc(-c2cc3ncn(CC[C@](C)(C(=O)NO)S(C)(=O)=O)c(=O)c3cc2F)cn1 [Example 33, (2R)-4-{7-[6-(dimethylamino)pyridin-3-yl]-6-fluoro-4-oxo-3,4-dihydroquinazolin-3-yl}-N-hydroxy-2-methanesulfonyl-2-methylbutanamide] | < 0.03 µg/mL | 0.5 µg/mL (≈ 1.05 µM) | 8 µg/mL (≈ 16.8 µM)
5 | C[C@@](CCn1cnc2cc(-c3ccc(C(F)F)cc3)ccc2c1=O)(C(=O)NO)S(C)(=O)=O [Example 10, (R)-4-(7-(4-(difluoromethyl)phenyl)-4-oxoquinazolin-3(4H)-yl)-N-hydroxy-2-methyl-2-(methylsulfonyl)butanamide] | 0.06 µg/mL (≈ 0.129 µM) | 0.25 µg/mL (≈ 0.537 µM) | 1 µg/mL (≈ 2.15 µM)
6 | Cc1ccc(-c2ccc3c(=O)n(CC[C@](C)(C(=O)NO)S(C)(=O)=O)cnc3c2)cc1 [Example 2, (R)—N-hydroxy-2-methyl-2-(methylsulfonyl)-4-(4-oxo-7-(p-tolyl)quinazolin-3(4H)-yl)butanamide] | 0.06 µg/mL (≈ 0.14 µM) | 0.125 µg/mL (≈ 0.291 µM) | 0.5 µg/mL (≈ 1.16 µM)
7 | CC(C)OCCNCc1ccc(-c2ccc3c(=O)n(CC[C@](C)(C(=O)NO)S(C)(=O)=O)ccc3c2)c(F)c1.Cl [Example 73, (2R)-4-{6-[2-fluoro-4-({[2-(propan-2-yloxy)ethyl]amino}methyl)phenyl]-1-oxo-1,2-dihydroisoquinolin-2-yl}-N-hydroxy-2-methanesulfonyl-2-methylbutanamide] | 0.25 µg/mL | 0.5 µg/mL | 2 µg/mL
8 | CN(C)CC(=O)OCCc1ccc(-c2ccc3c(=O)n(CC[C@](C)(C(=O)NO)S(C)(=O)=O)ccc3c2)cc1 [Example 94, 2-(4-{2-[(3R)-3-(hydroxycarbamoyl)-3-methanesulfonyl-3-methylpropyl]-1-oxo-1,2-dihydroisoquinolin-6-yl}phenyl)ethyl 2-(dimethylamino)acetate] | 0.125 µg/mL (≈ 0.23 µM) | 0.25 µg/mL (≈ 0.46 µM) | 2 µg/mL (≈ 3.68 µM)
9 | CONCc1ccc(-c2ccc3c(=O)n(CC[C@](C)(C(=O)NO)S(C)(=O)=O)ccc3c2)cc1 [Example 78, (2R)—N-hydroxy-2-methanesulfonyl-4-(6-{4-[(methoxyamino)methyl]phenyl}-1-oxo-1,2-dihydroisoquinolin-2-yl)-2-methylbutanamide] | 0.063 µg/mL (≈ 0.133 µM) | 0.125 µg/mL (≈ 0.264 µM) | 4 µg/mL (≈ 8.45 µM)
10 | COCCN(C)Cc1ccc(-c2ccc3c(=O)n(CC[C@](C)(C(=O)NO)S(C)(=O)=O)cnc3c2)c(F)c1F [Example 38, (2R)-4-[7-(2,3-difluoro-4-{[(2-methoxyethyl)(methyl)amino]methyl}phenyl)-4-oxo-3,4-dihydroquinazolin-3-yl]-N-hydroxy-2-methanesulfonyl-2-methylbutanamide] | 0.125 µg/mL (≈ 0.226 µM) | 0.5 µg/mL (≈ 0.905 µM) | 4 µg/mL (≈ 7.24 µM)
11 | C[C@@](CCn1cnc2cc(-c3ccc(CN4CCOCC4)cc3)ccc2c1=O)(C(=O)NO)S(C)(=O)=O [Example 35, (2R)—N-hydroxy-2-methanesulfonyl-2-methyl-4-(7-{4-[(morpholin-4-yl)methyl]phenyl}-4-oxo-3,4-dihydroquinazolin-3-yl)butanamide] | 0.125 µg/mL (≈ 0.243 µM) | 0.5 µg/mL (≈ 0.972 µM) | 1 µg/mL (≈ 1.94 µM)
12 | C[C@@](CCn1ccc2cc(-c3ccc(CN4CCCC4=O)cc3)ccc2c1=O)(C(=O)NO)S(C)(=O)=O [Example 81, (2R)—N-hydroxy-2-methanesulfonyl-2-methyl-4-(1-oxo-6-{4-[(2-oxopyrrolidin-1-yl)methyl]phenyl}-1,2-dihydroisoquinolin-2-yl)butanamide] | 0.25 µg/mL (≈ 0.489 µM) | 0.5 µg/mL (≈ 0.977 µM) | 1 µg/mL (≈ 1.95 µM)
13 | COCCN(C)Cc1ccc(-c2ccc3c(=O)n(CC[C@](C)(C(=O)NO)S(C)(=O)=O)cnc3c2)c(F)c1 [Example 36, (2R)-4-[7-(2-fluoro-4-{[(2-methoxyethyl)(methyl)amino]methyl}phenyl)-4-oxo-3,4-dihydroquinazolin-3-yl]-N-hydroxy-2-methanesulfonyl-2-methylbutanamide] | 0.125 µg/mL (≈ 0.234 µM) | 1 µg/mL (≈ 1.87 µM) | 1 µg/mL (≈ 1.87 µM)
14 | COCCN(C)Cc1ccc(-c2ccc3c(=O)n(CC[C@](C)(C(=O)NO)S(C)(=O)=O)ccc3c2)c(F)c1 [Example 66, (2R)-4-[6-(2-fluoro-4-{[(2-methoxyethyl)(methyl)amino]methyl}phenyl)-1-oxo-1,2-dihydroisoquinolin-2-yl]-N-hydroxy-2-methanesulfonyl-2-methylbutanamide] | 0.063 µg/mL (≈ 0.118 µM) | 0.125 µg/mL (≈ 0.234 µM) | 1 µg/mL (≈ 1.87 µM)
15 | CCOc1ccc(-c2ccc3c(=O)n(CC[C@](C)(C(=O)NO)S(C)(=O)=O)cc(F)c3c2)cn1 [Example 86, (2R)-4-[6-(6-ethoxypyridin-3-yl)-4-fluoro-1-oxo-1,2-dihydroisoquinolin-2-yl]-N-hydroxy-2-methanesulfonyl-2-methylbutanamide] | < 0.03 µg/mL | 0.25 µg/mL (≈ 0.524 µM) | 16 µg/mL (≈ 33.5 µM)
16 | C[C@@](CCn1cnc2cc(-c3ccc(CCO)cc3F)ccc2c1=O)(C(=O)NO)S(C)(=O)=O [Example 45, (2R)-4-{7-[2-fluoro-4-(2-hydroxyethyl)phenyl]-4-oxo-3,4-dihydroquinazolin-3-yl}-N-hydroxy-2-methanesulfonyl-2-methylbutanamide] | 0.063 µg/mL (≈ 0.132 µM) | 1 µg/mL (≈ 2.09 µM) | 1 µg/mL (≈ 2.09 µM)
17 | C[C@@](CCn1cnc2cc(-c3ccc(CNC4CC4)cc3F)ccc2c1=O)(C(=O)NO)S(C)(=O)=O [Example 41, (2R)-4-(7-{4-[(cyclopropylamino)methyl]-2-fluorophenyl}-4-oxo-3,4-dihydroquinazolin-3-yl)-N-hydroxy-2-methanesulfonyl-2-methylbutanamide] | 0.125 µg/mL (≈ 0.249 µM) | 2 µg/mL (≈ 3.98 µM) | 2 µg/mL (≈ 3.98 µM)
18 | COCCNCc1ccc(-c2ccc3c(=O)n(CC[C@](C)(C(=O)NO)S(C)(=O)=O)ccc3c2)c(F)c1 [Example 67, (2R)-4-[6-(2-fluoro-4-{[(2-methoxyethyl)amino]methyl}phenyl)-1-oxo-1,2-dihydroisoquinolin-2-yl]-N-hydroxy-2-methanesulfonyl-2-methylbutanamide] | 0.125 µg/mL (≈ 0.241 µM) | 1 µg/mL (≈ 1.92 µM) | 1 µg/mL (≈ 1.92 µM)
19 | CONCc1ccc(-c2ccc3c(=O)n(CC[C@](C)(C(=O)NO)S(C)(=O)=O)cnc3c2)c(F)c1 [Example 50, (2R)-4-(7-{2-fluoro-4-[(methoxyamino)methyl]phenyl}-4-oxo-3,4-dihydroquinazolin-3-yl)-N-hydroxy-2-methanesulfonyl-2-methylbutanamide] | 0.125 µg/mL (≈ 0.254 µM) | 0.5 µg/mL (≈ 1.02 µM) | 2 µg/mL (≈ 4.06 µM)

Source: patent US10781184B2, “Substituted benzazinones as antibacterial compounds” (GlaxoSmithKline Intellectual Property Development Limited, priority 2015, dated 2020)
